The record followed here is US20250075278A1, “EPIGENTIC REGULATION AND CO-TARGETING APPROACHES OF PSMA IN PROSTRATE CANCER” (Fred Hutchinson Cancer Center, priority 2023, published 2025).

In one test the test system is LuCaP 35CR xenografts. The test is described as follows: PSMA IHC of LuCaP 35CR PDX tumors grown in treated mice. Type of test: in vivo. Conditions: LuCaP 35CR PDX in castrated CB17SCID mice, 75 mg/kg/day, 21 days, vs 30% Captisol control. The procedure:
In vivo experiments. All surgical procedures were performed under isoflurane anesthesia. LuCaP 35CR tumors (1 mm3) were surgically implanted s.c. into castrated male CB17SCID mice (The Jackson Laboratory) (59). When tumors reached a volume between 150 mm3 and 200 mm3, mice were administered CUDC-907 (Curis Inc.), a combined pan-HDAC/PI3K inhibitor dissolved in 30% captisol (Thermo Fisher Scientific). Treated mice received 75 mg/kg/day for 5 days, followed by 2 days off treatment, repeated for a total of 21 days or until the diameter of the tumor reached 2 cm. The same volume of 30% captisol, in the same manner as described above, was used to treat the vehicle group. […]
IHC staining. […] Immunocomplexes were detected using PV poly-HRP anti-mouse IgG (Leica Microsystems, PV6114) with DAB as the chromogen. […] Immunocomplexes were detected using the Biotin XX Tyramide SuperBoost kit (Invitrogen, B40931) per manufacturer's protocol with DAB as the chromogen. […] Immunocomplexes were detected using Tyramide Signal Amplification system from Thermo Fisher Scientific. […] Membranous PSMA expression was scored in a blinded manner by 2 pathologists, whereby the optical density level (“0” for no brown color, “1” for faint and fine brown chromogen deposition, and “2” for prominent chromogen deposition) was multiplied by the percentage of cells at each staining level, resulting in a total score range of 0-200. […]

The subject of test [1] is DU145, LAPC4, and LuCaP 35CR CL. The test is described as follows: PSMA protein expression in cell line models treated with epigenetic modifiers (flow cytometry and fluorescence immunocytochemistry). Type of test: cell-based. Conditions: for PSMA expression after HDACi treatment: in vitro and in vivo. The procedure: Cell lines and in vitro experiments. […] All drugs were diluted in DMSO.
To this end, 3 cell line models (DU145, LAPC4, and LuCaP 35CR CL) were treated with the DNMTi decitabine and pan-HDACi (panobinostat, CUDC-907, vorinostat) and applied 2 orthogonal approaches (flow cytometry and fluorescence immunocytochemistry) and 2 separate monoclonal antibodies (3E6 and LNI-17) to measure PSMA protein expression.
A general note: In flow cytometry, cells or beads pass a laser one at a time.

Each structure is given as a SMILES string. “Also recorded” adds a separate entry of the source.

As for `COc1ccc(-c2nc(N3CCOCC3)c3sc(CN(C)c4ncc(C(=O)NO)cn4)cc3n2)cn1` [CUDC-907], the “PSMA expression in tumors (IHC, PSMA-positive cells)” value in the test with LuCaP 35CR xenografts was “significantly increased PSMA expression; also recorded: enhanced PSMA expression”. In test [1], the “PSMA expression after HDACi treatment” value is “significant upregulation of PSMA expression”.

On to `O=C(CNc1cccc2c1C(=O)N(C1CCC(=O)NC1=O)C2=O)NCCCOc1ccc(NC(=O)c2ccc(CN(C(=O)c3ccc4c(c3)OCC(=O)N4)C3CC3)cc2)nc1` (stereo not shown) [MS159], for which the “PSMA re-expression (density plot, FIG. 5H)” value in test [1] (10 μM, cell line not stated) is listed as “PSMA re-expression”.

With `O=C(CCCCCCC(=O)Nc1ccccc1)NO` [vorinostat], the “PSMA expression after HDACi treatment” value in test [1] is recorded as “significant upregulation of PSMA expression”.
